The CheMixHub viscosity set
± gives the uncertainty stated by the source.

Experiment: xn = mol fraction of the nth substance listed

CCCCN + c1ccccc1
viscosity [mPa·s], 101 kPa
Conditions	303.15 K	313.15 K
x1 = 0.009356	0.5633 ± 0.0043	0.4919 ± 0.0039
x1 = 0.01948	0.5628 ± 0.0043	0.4907 ± 0.0039
x1 = 0.02841	0.5622 ± 0.0043	0.4905 ± 0.0039
x1 = 0.03798	0.562 ± 0.0043	0.4893 ± 0.0039
x1 = 0.048	0.5618 ± 0.0043	0.4884 ± 0.0039
x1 = 0.0558	0.536 ± 0.005	–
x1 = 0.05882	0.5617 ± 0.0043	0.4876 ± 0.0039
x1 = 0.0669	0.5608 ± 0.0043	0.4869 ± 0.0039
x1 = 0.07642	0.5598 ± 0.0043	0.4861 ± 0.0039
x1 = 0.08586	0.5588 ± 0.0043	0.4852 ± 0.0039
x1 = 0.1165	0.516 ± 0.005	–
x1 = 0.2036	0.494 ± 0.005	–
x1 = 0.2875	0.479 ± 0.005	–
x1 = 0.382	0.465 ± 0.005	–
x1 = 0.5164	0.453 ± 0.005	–
x1 = 0.5676	0.451 ± 0.005	–
x1 = 0.6631	0.448 ± 0.005	–
x1 = 0.7656	0.447 ± 0.005	–
x1 = 0.8602	0.446 ± 0.005	–
x1 = 0.9278	0.444 ± 0.005	–
x2 = 0.0974	0.4454 ± 0.0051	–
x2 = 0.1974	0.4466 ± 0.0051	–
x2 = 0.5007	0.4542 ± 0.0052	–
x2 = 0.6051	0.4738 ± 0.0054	–
x2 = 0.7995	0.5056 ± 0.0057	–
x2 = 0.9004	0.5322 ± 0.006	–

CCCC(=O)OCC + C1CCCCC1
viscosity [mPa·s], 101 kPa
Conditions	298.15 K	308.15 K
x1 = 0.0551	0.852 ± 0.086	0.72 ± 0.072
x1 = 0.1552	0.796 ± 0.08	0.667 ± 0.067
x1 = 0.2554	0.75 ± 0.075	0.626 ± 0.063
x1 = 0.3554	0.711 ± 0.071	0.594 ± 0.06
x1 = 0.4504	0.682 ± 0.068	0.573 ± 0.058
x1 = 0.4992	0.669 ± 0.067	0.564 ± 0.057
x1 = 0.5558	0.656 ± 0.066	0.557 ± 0.056
x1 = 0.6532	0.638 ± 0.064	0.549 ± 0.055
x1 = 0.7547	0.624 ± 0.063	0.548 ± 0.055
x1 = 0.8532	0.616 ± 0.062	0.554 ± 0.056
x1 = 0.9564	0.613 ± 0.061	0.568 ± 0.057

OC1CCCCCC1 + OCCO
viscosity [mPa·s], 100 kPa
Conditions	293.15 K	298.15 K	303.15 K	308.15 K	313.15 K	318.15 K
x1 = 0.0095	20.34 ± 3	16.92 ± 3	13.81 ± 3	11.37 ± 3	9.587 ± 3	7.9 ± 3
x1 = 0.0395	20.45 ± 3	16.98 ± 3	13.85 ± 3	11.42 ± 3	9.625 ± 3	7.92 ± 3
x1 = 0.0578	20.52 ± 3	17.02 ± 3	13.9 ± 3	11.44 ± 3	9.638 ± 3	7.931 ± 3
x1 = 0.0878	20.65 ± 3	17.12 ± 3	13.95 ± 3	11.49 ± 3	9.678 ± 3	7.957 ± 3
x1 = 0.1	20.71 ± 3	17.16 ± 3	13.98 ± 3	11.51 ± 3	9.694 ± 3	7.972 ± 3
x1 = 0.1961	21.18 ± 3	17.53 ± 3	14.22 ± 3	11.7 ± 3	9.819 ± 3	8.064 ± 3
x1 = 0.305	21.95 ± 3	18.16 ± 3	14.85 ± 3	12.27 ± 3	10.25 ± 3	8.379 ± 3
x1 = 0.3969	22.89 ± 3	19.04 ± 3	15.54 ± 3	12.83 ± 3	10.68 ± 3	8.723 ± 3
x1 = 0.4993	24.41 ± 3	20.37 ± 3	16.58 ± 3	13.61 ± 3	11.32 ± 3	9.271 ± 3
x1 = 0.5877	26.32 ± 3	21.93 ± 3	17.76 ± 3	14.49 ± 3	12.06 ± 3	9.883 ± 3
x1 = 0.6993	29.93 ± 3	24.59 ± 3	19.71 ± 3	15.94 ± 3	13.24 ± 3	10.77 ± 3
x1 = 0.7996	34.97 ± 3.1	28.03 ± 3	22.14 ± 3	17.65 ± 3	14.57 ± 3	11.68 ± 3
x1 = 0.8977	45.8 ± 3.1	36.3 ± 3.1	28.9 ± 3	22.7 ± 3	19 ± 3	15.7 ± 3

CCCC(=O)OCC(COC(=O)CCC)OC(=O)CCC + CCCCO
viscosity [mPa·s], 101.33 kPa
Conditions	x1 = 0.1	x1 = 0.2	x1 = 0.3	x1 = 0.4	x1 = 0.5	x1 = 0.6	x1 = 0.7	x1 = 0.8	x1 = 0.9
298 K	2.61 ± 0.03	3 ± 0.03	3.46 ± 0.04	3.99 ± 0.05	4.58 ± 0.05	5.23 ± 0.07	5.96 ± 0.08	6.73 ± 0.09	7.66 ± 0.11
303 K	2.31 ± 0.02	2.64 ± 0.03	3.03 ± 0.03	3.48 ± 0.04	3.97 ± 0.05	4.54 ± 0.06	5.14 ± 0.07	5.77 ± 0.08	6.54 ± 0.09
308 K	2.04 ± 0.02	2.33 ± 0.02	2.68 ± 0.03	3.06 ± 0.03	3.45 ± 0.04	3.95 ± 0.05	4.45 ± 0.06	5.01 ± 0.07	5.64 ± 0.08
313 K	1.83 ± 0.02	2.08 ± 0.02	2.38 ± 0.03	2.7 ± 0.03	3.06 ± 0.04	3.48 ± 0.04	3.9 ± 0.05	4.37 ± 0.06	4.89 ± 0.07

CC[N+](=O)[O-] + Cc1cc(C)cc(C)c1
293.15 K, 101.33 kPa
Conditions	viscosity [mPa·s]
x1 = 0.0912	0.69 ± 0.007
x1 = 0.1908	0.685 ± 0.007
x1 = 0.2974	0.68 ± 0.007
x1 = 0.3871	0.675 ± 0.007
x1 = 0.5179	0.669 ± 0.007
x1 = 0.6112	0.665 ± 0.007
x1 = 0.6912	0.665 ± 0.007
x1 = 0.7813	0.669 ± 0.007
x1 = 0.8874	0.671 ± 0.007

CCCCN + CCO
viscosity [mPa·s]
Conditions	298.15 K	303.15 K	313.15 K
100 kPa, x2 = 0.102	0.514 ± 0.021	–	–
100 kPa, x2 = 0.15	0.542 ± 0.022	–	–
100 kPa, x2 = 0.295	0.626 ± 0.026	–	–
100 kPa, x2 = 0.449	0.749 ± 0.031	–	–
100 kPa, x2 = 0.501	0.791 ± 0.032	–	–
100 kPa, x2 = 0.595	0.872 ± 0.036	–	–
100 kPa, x2 = 0.68	0.931 ± 0.038	–	–
100 kPa, x2 = 0.752	0.977 ± 0.04	–	–
100 kPa, x2 = 0.897	1.051 ± 0.043	–	–
101.33 kPa, x1 = 0.1093	–	0.9614 ± 0.008	0.7843 ± 0.0067
101.33 kPa, x1 = 0.1943	–	0.9273 ± 0.0077	0.747 ± 0.0064
101.33 kPa, x1 = 0.2825	–	0.8774 ± 0.0073	0.7048 ± 0.0061
101.33 kPa, x1 = 0.4151	–	0.7915 ± 0.0067	0.6383 ± 0.0056
101.33 kPa, x1 = 0.5136	–	0.7146 ± 0.0061	0.5888 ± 0.0052
101.33 kPa, x1 = 0.6128	–	0.6369 ± 0.0055	0.5355 ± 0.0048
101.33 kPa, x1 = 0.7066	–	0.5687 ± 0.005	0.4844 ± 0.0044
101.33 kPa, x1 = 0.8039	–	0.5095 ± 0.0046	0.4428 ± 0.0041
101.33 kPa, x1 = 0.894	–	0.4717 ± 0.0043	0.4132 ± 0.0039

CCC(C)(C)C + CCCCCCCCCCCC
298 K, 101.33 kPa
Conditions	viscosity [mPa·s]
x1 = 0.0995	1.264 ± 0.017
x1 = 0.2015	1.152 ± 0.015
x1 = 0.2997	1.056 ± 0.014
x1 = 0.3975	0.944 ± 0.013
x1 = 0.5013	0.8256 ± 0.011
x1 = 0.6011	0.7202 ± 0.01
x1 = 0.7	0.6152 ± 0.0088
x1 = 0.7997	0.5206 ± 0.0077
x1 = 0.9002	0.4256 ± 0.0066

CCCCN + CCCCCCCCO
viscosity [mPa·s], 101.33 kPa
Conditions	303.15 K	313.15 K	323.15 K
x1 = 0.094	5.27 ± 0.038	3.765 ± 0.028	–
x1 = 0.1	5.075 ± 0.044	3.779 ± 0.033	2.828 ± 0.025
x1 = 0.1949	4.391 ± 0.032	3.129 ± 0.024	–
x1 = 0.2011	4.061 ± 0.036	3.065 ± 0.027	2.358 ± 0.013
x1 = 0.288	3.626 ± 0.027	2.585 ± 0.019	–
x1 = 0.3	3.239 ± 0.029	2.487 ± 0.022	1.942 ± 0.018
x1 = 0.4015	2.547 ± 0.023	1.984 ± 0.018	1.576 ± 0.014
x1 = 0.4199	2.665 ± 0.02	1.929 ± 0.015	–
x1 = 0.5003	1.995 ± 0.018	1.59 ± 0.015	1.289 ± 0.012
x1 = 0.5164	2.065 ± 0.016	1.521 ± 0.012	–
x1 = 0.6002	1.528 ± 0.014	1.235 ± 0.011	1.021 ± 0.01
x1 = 0.619	1.523 ± 0.012	1.154 ± 0.0092	–
x1 = 0.7003	1.141 ± 0.011	0.945 ± 0.009	0.791 ± 0.008
x1 = 0.7192	1.103 ± 0.0088	0.8639 ± 0.0071	–
x1 = 0.7998	0.847 ± 0.008	0.716 ± 0.007	0.614 ± 0.006
x1 = 0.8084	0.8208 ± 0.0068	0.6658 ± 0.0057	–
x1 = 0.9	0.623 ± 0.006	0.537 ± 0.005	0.466 ± 0.005
x1 = 0.9064	0.5902 ± 0.0051	0.5049 ± 0.0045	–

CCCCN + NC1CCCCC1
298.15 K, 101 kPa
Conditions	viscosity [mPa·s]
x2 = 0.0757	0.6805 ± 0.0059
x2 = 0.1557	0.8796 ± 0.0073
x2 = 0.2401	1.111 ± 0.0089
x2 = 0.3296	1.33 ± 0.01
x2 = 0.4244	1.548 ± 0.012
x2 = 0.5252	1.774 ± 0.013
x2 = 0.6324	1.954 ± 0.015
x2 = 0.7468	2.035 ± 0.015
x2 = 0.8691	1.976 ± 0.015

O=C([O-])CC(O)(CC(=O)[O-])C(=O)[O-].[K+].[K+].[K+] + O
viscosity [mPa·s], 101 kPa
Conditions	293.15 K	298.15 K	303.15 K	308.15 K
x1 = 0.0025	1.072 ± 0.014	0.946 ± 0.012	0.844 ± 0.011	0.758 ± 0.01
x1 = 0.0089	1.265 ± 0.016	1.123 ± 0.014	1.003 ± 0.013	0.908 ± 0.012
x1 = 0.0177	1.478 ± 0.018	1.32 ± 0.016	1.187 ± 0.015	1.07 ± 0.014

CCCCN + CCCCOC(C)=O
303.15 K, 101 kPa
Conditions	viscosity [mPa·s]
x1 = 0.21	0.6407 ± 0.0078
x1 = 0.2909	0.637 ± 0.0078
x1 = 0.4108	0.6349 ± 0.0077
x1 = 0.5598	0.6248 ± 0.0076
x1 = 0.64	0.6218 ± 0.0076
x1 = 0.7026	0.6038 ± 0.0074
x1 = 0.8413	0.5869 ± 0.0072
x1 = 0.9148	0.5794 ± 0.0071
